US8133907B2, “Pyridine derivatives as dipeptedyl peptidase inhibitors” (Eli Lilly and Company, priority 2005, dated 2012)
pIC50: −log10 of the molar value. Counter-ions that a name gives are not always drawn.

biological target: T1, human recombinant DPIV enzyme (Homo sapiens, UniProt P27487); assay: Human Recombinant DPIV Activity Assay (fluorometric end point, Gly-Pro-AMC substrate); type: biochemical; conditions: enriched human recombinant DPIV enzyme (21.3 μU/μl), Gly-Pro-AMC 0.02 mM, 12 points concentration response curve, duplicate
T1 construct: Secreted DPIV (lacking membrane anchor) is enriched from HEK293 cell culture supernatant; made in house; host or cells: HEK293
Procedure: Human Recombinant DPIV Activity Assay
The DPIV assay uses a fluorometric end point assay (excitation 355 nm; emission 460 nm), enriched human recombinant DPIV enzyme (21.3 μU/μl), and Gly-Pro-AMC (Bachem I-1225) as substrate (0.02 mM). Secreted DPIV (lacking membrane anchor) is enriched from HEK293 cell culture supernatant by ultrafiltration, ultra-centrifugation, and size-exclusion chromatography. IC50 values of the compounds are calculated based on a 12 points concentration response curve. Each concentration is measured in duplicate. The assay is validated by plate variability and conformity, inter-plate variability, signal window, and minimum significant ration of IC50. A MSR is calculated based on a test/retest analysis and a retrospective analysis. The MSR value is 1.8.

T1 sequence (P27487 29-766 limits assumed): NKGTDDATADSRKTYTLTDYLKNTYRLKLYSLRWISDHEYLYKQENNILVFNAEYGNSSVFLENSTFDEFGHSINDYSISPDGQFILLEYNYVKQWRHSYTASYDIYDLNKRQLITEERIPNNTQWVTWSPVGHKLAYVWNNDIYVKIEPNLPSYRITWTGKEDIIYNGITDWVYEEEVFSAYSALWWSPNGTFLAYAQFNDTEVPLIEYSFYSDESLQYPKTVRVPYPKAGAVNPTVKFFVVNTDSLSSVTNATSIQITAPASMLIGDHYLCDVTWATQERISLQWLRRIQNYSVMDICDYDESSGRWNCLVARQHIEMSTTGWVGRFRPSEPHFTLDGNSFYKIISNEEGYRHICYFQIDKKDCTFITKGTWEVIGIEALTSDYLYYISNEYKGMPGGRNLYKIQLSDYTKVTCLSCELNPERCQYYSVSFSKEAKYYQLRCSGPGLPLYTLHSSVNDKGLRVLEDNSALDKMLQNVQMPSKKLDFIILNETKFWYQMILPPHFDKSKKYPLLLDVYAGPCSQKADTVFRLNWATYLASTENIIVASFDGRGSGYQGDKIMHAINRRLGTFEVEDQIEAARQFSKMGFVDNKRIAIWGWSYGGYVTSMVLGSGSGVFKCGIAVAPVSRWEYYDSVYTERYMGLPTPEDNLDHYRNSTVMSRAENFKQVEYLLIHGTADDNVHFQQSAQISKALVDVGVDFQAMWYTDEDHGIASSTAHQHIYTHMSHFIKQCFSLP

| pIC50 | Structure (SMILES) |
| --- | --- |
| 6.47 | CC(C)(C)NC(=O)c1cccnc1C[C@H](O)[C@H](N)Cc1cc(F)ccc1C(F)(F)F (racemic) [Example 10, 2-[(2SR,3RS)-3-Amino-4-(5-fluoro-2-trifluoromethylphenyl)-2-hydroxybutyl]-N-tert-butylnicotinamide Dihydrochloride] |
| 7.52 | Cc1ccc(C)c(C[C@@H](N)[C@@H](O)Cc2ncccc2C(=O)NC(C)(C)C)c1 [Example 8, 2-[(2S,3R)-3-Amino-4-(2,5-dimethyl-phenyl)-2-hydroxy-butyl]-N-tert-butyl-nicotinamide Dihydrochloride] |
| 7.66 | CC(C)(NC(=O)c1cccnc1C[C@H](O)[C@H](N)Cc1ccccc1F)c1ccccc1 [Example 23, 2-[(2S,3R)-3-Amino-4-(2-fluoro-phenyl)-2-hydroxy-butyl]-N-(1-methyl-1-phenyl-ethyl)-nicotinamide Dihydrochloride] |
| 6.63 | N[C@H](Cc1ccccc1F)[C@@H](O)Cc1ccccn1 [Example 27, (2S,3R)-3-Amino-4-(2,-fluoro-phenyl)-1-pyridin-2-yl-butan-2-ol Dihydrochloride] |
